Results published in patent US20160122320A1, “USEFUL COMBINATIONS OF MONOBACTAM ANTIBIOTICS WITH BETA-LACTAMASE INHIBITORS” (Basilea Pharmaceutica AG, priority 2005, published 2016).
Structures can show the parent of a compound that is named as a salt.

Experiments:
Assay in all cases: MIC, NCCLS broth microdilution
Type in all cases: cell-based
Enterobacter cloacae P99 = settings: MIC of antibiotic compound 1 with the labelled bridged monobactam of formula II and clavulanate, 4 mg/L each
[1] = tested on: Pseudomonas aeruginosa MK1184; settings: MIC of antibiotic compound 1 with the labelled bridged monobactam of formula II and clavulanate, 4 mg/L each
Acinetobacter sp. J2 = settings: Acinetobacter sp. J2; MIC of antibiotic compound 1 with the labelled bridged monobactam of formula II and clavulanate, 4 mg/L each
[2] = tested on: Klebsiella pneumoniae CF104; settings: MIC of antibiotic compound 1 with the labelled bridged monobactam of formula II and clavulanate, 4 mg/L each
[3] = tested on: Stenotrophomonas malthophilia 1AC736; settings: Stenotrophomonas malthophilia 1AC736; MIC of antibiotic compound 1 with the labelled bridged monobactam of formula II and clavulanate, 4 mg/L each
Serratia marcescens S6 = settings: MIC of antibiotic compound 1 with the labelled bridged monobactam of formula II and clavulanate, 4 mg/L each
[4] = tested on: Pseudomonas aeruginosa 1973E; settings: MIC of antibiotic compound 1 with the labelled bridged monobactam of formula II and clavulanate, 4 mg/L each
Outline: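 MIC read by eye as the lowest concentration giving no visible growth after overnight incubation (30° C. or 37° C.), following NCCLS M7-A5 microdilution with ≤1% final DMSO. For combinations, partner compounds (formula II, III-XIII) were fixed at 4 μg/mL each while formula I compounds were titrated.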

MIC of antibiotic at fixed inhibitor concentration (4 mg/L) (Enterobacter cloacae P99) [µg/mL] | MIC of antibiotic at fixed inhibitor concentration (4 mg/L) [1] [µg/mL] | MIC of antibiotic at fixed inhibitor concentration (4 mg/L) (Acinetobacter sp. J2) [µg/mL] | MIC of antibiotic at fixed inhibitor concentration (4 mg/L) [2] [µg/mL] | MIC of antibiotic at fixed inhibitor concentration (4 mg/L) [3] [µg/mL] | MIC of antibiotic at fixed inhibitor concentration (4 mg/L) (Serratia marcescens S6) [µg/mL] | MIC of antibiotic at fixed inhibitor concentration (4 mg/L) [4] [µg/mL] | SMILES
32 | 16 | >32 | 0.125 | 0.125 | 0.25 | 4 | COC(=O)c1ccc[n+](CC(=O)N2CC[C@@H]3[C@H]2C(=O)N3S(=O)(=O)[O-])c1C [Compound 115, (1S,5R)-2-{2-[3-(methoxycarbonyl)-2-methylpyridinium]acetyl}-7-oxo-2,6-diazabicyclo[3.2.0]heptane-6-sulfonate, inner salt]
>32 | 32 | >32 | 0.25 | 0.125 | 0.25 | 4 | O=C(C[n+]1ccc2c(c1)CCCC2)N1CC[C@@H]2[C@H]1C(=O)N2S(=O)(=O)[O-] [Compound 106, (1S,5R)-7-oxo-2-(2-(2-5,6,7,8-tetrahydroisoquinolinium)acetyl)-2,6-diazabicyclo[3.2.0]heptane-6-sulfonate, inner salt]
32 | 16 | 8 | 0.5 | 0.125 | 0.125 | 8 | NC(=O)c1cc[n+](CC(=O)N2CC[C@@H]3[C@H]2C(=O)N3S(=O)(=O)[O-])cc1 [Compound 105, (1S,5R)-2-[2-(4-carbamoylpyridinium)acetyl]-7-oxo-2,6-diazabicyclo[3.2.0]heptane-6-sulfonate, inner salt]

The remaining lines, values behind:

SMILES | MIC of antibiotic at fixed inhibitor concentration (4 mg/L) (Enterobacter cloacae P99) [µg/mL] | MIC of antibiotic at fixed inhibitor concentration (4 mg/L) [1] [µg/mL] | MIC of antibiotic at fixed inhibitor concentration (4 mg/L) (Acinetobacter sp. J2) [µg/mL] | MIC of antibiotic at fixed inhibitor concentration (4 mg/L) [2] [µg/mL] | MIC of antibiotic at fixed inhibitor concentration (4 mg/L) [3] [µg/mL] | MIC of antibiotic at fixed inhibitor concentration (4 mg/L) (Serratia marcescens S6) [µg/mL] | MIC of antibiotic at fixed inhibitor concentration (4 mg/L) [4] [µg/mL]
Cn1nnnc1SCC(=O)N1CC[C@@H]2[C@H]1C(=O)N2S(=O)(=O)[O-].[Na+] [Compound 206] | 8 | >32 | 4 | 0.25 | 0.125 | 4 | 4
CC(=O)Nc1cccc(NC(=O)N2CC[C@@H]3[C@H]2C(=O)N3S(=O)(=O)[O-])c1.[Na+] [Compound 307, Sodium(1S,5R)-2-{N-[3-(acetylamino)phenyl]carbamoyl}-7-oxo-2,6-diazabicyclo[3.2.0]heptane-6-sulfonate] | 32 | >32 | >32 | 2 | 0.125 | 0.25 | 8
O=C(Nc1ccc(NC(=O)N2CC[C@@H]3[C@H]2C(=O)N3S(=O)(=O)O)cc1)N1CCNCC1 [Compound 326, (1S,5R)-7-oxo-2-{N-[4-(piperazinylcarbonylamino)phenyl]carbamoyl}-2,6-diazabicyclo[3.2.0]heptane-6-sulfonic acid] | 8 | 32 | 4 | >32 | 0.125 | 0.125 | 4
